One series deals with Albumin (Homo sapiens, UniProt P02768). As to the kind of experiment: Binding affinity to human serum albumin immobilized on AR2G biosensor assessed as dissociation constant incubated for 3 mins by BLI assay. Type of series: ADME.
Series [1] in a line: Selectivity ratio of EC50 for agonist activity at GLP-1R (unknown origin) expressed in HEK293 cells co-expressing CRE-Luc assessed as increase in intracellular cAMP accumulation in presence of 2% HSA to EC50 for agonist activity at GLP-1R (unknown origin) expressed in HEK293 cells co-expressing CRE-Luc assessed as increase in intracellular cAMP accumulation. The format is cell-based. (In general: cAMP levels reflect the balance of adenylyl cyclase and phosphodiesterase activity.)

Series [2] has as its target T1, Glucagon-like peptide 1 receptor (Homo sapiens, UniProt P43220). Briefly: Agonist activity at GLP-1R (unknown origin) expressed in HEK293 cells co-expressing CRE-Luc assessed as increase in intracellular cAMP accumulation by luciferase based assay. Conditions: read-out: EC50. Type of series: functional, cell-based.
Series [3] has as its target T1, Glucagon-like peptide 1 receptor. Briefly: Agonist activity at GLP-1R (unknown origin) expressed in HEK293 cells co-expressing CRE-Luc assessed as increase in intracellular cAMP accumulation in presence of 10% FBS by luciferase based assay. The format is functional, cell-based. Conditions: read-out: EC50.
Series [4] in a line: Stability in Sprague-Dawley rat plasma assessed as drug degradation by measuring half life measured after 96 hrs by RP-HPLC analysis. The format is ADME, cell-free.
The target in series [5] is T1, Glucagon-like peptide 1 receptor. As to the kind of experiment: Agonist activity at GLP-1R (unknown origin) expressed in HEK293 cells co-expressing CRE-Luc assessed as increase in intracellular cAMP accumulation in presence of 2% HSA by luciferase based assay. Conditions: read-out: EC50. Type of series: functional, cell-based.
Series [6] is described as follows: Stability in Sprague-Dawley rat plasma assessed as compound remaining measured after 96 hrs by RP-HPLC analysis. Type of series: ADME, cell-free. Conditions: read-out: Stability.
Series [7] is described as follows: Apparent volume of distribution in BALB/c mouse at 0.5 mg/kg, iv measured up to 48 hrs by LC-MS/MS analysis. Type of series: ADME, organism-based. Conditions: in vivo, read-out: Vz.
The test system of series [8] is Mus musculus. Briefly: Anti-hyperglycemic activity in well-fed type-2 diabetes db/db mouse assessed as blood glucose level at 100 nmol/kg, sc administered on every 48 hrs. Type of series: functional.
Series [9] concerns Mus musculus. Briefly: Anti-hyperglycemic activity in type-2 diabetes db/db mouse assessed as regulation of blood glucose level at 3 to 600 nmol/kg, sc measured up to 96 hrs. The format is functional, organism-based.
The subject of series [10] is Mus musculus. As to the kind of experiment: Anti-hyperglycemic activity in 16 hr-fasted type-2 diabetes db/db mouse at 100 nmol/kg, sc pretreated for 0.5 hrs followed by glucose administration measured for 2 hrs by OGTT method. The format is functional, organism-based. Conditions: time 2.5 hrs.
Series [11] deals with Mus musculus. As to the kind of experiment: Anti-hyperglycemic activity in 16 hr-fasted type-2 diabetes db/db mouse assessed as homeostasis of blood glucose level at 100 nmol/kg, sc pretreated for 0.5 hrs followed by glucose administration measured for 2 hrs. The format is functional, organism-based. Conditions: time 2.5 hrs.
The nature of series [12]: Apparent volume of distribution in Sprague-Dawley rat at 1 mg/kg, iv measured up to 48 hrs by LC-MS/MS analysis. Type of series: ADME, organism-based. Conditions: in vivo, read-out: Vz.

The source made the active and inactive calls. No cut-off for these calls is given here. Where only a bound is given, the exact number is not on record here.

T1 sequence (P43220 whole entry): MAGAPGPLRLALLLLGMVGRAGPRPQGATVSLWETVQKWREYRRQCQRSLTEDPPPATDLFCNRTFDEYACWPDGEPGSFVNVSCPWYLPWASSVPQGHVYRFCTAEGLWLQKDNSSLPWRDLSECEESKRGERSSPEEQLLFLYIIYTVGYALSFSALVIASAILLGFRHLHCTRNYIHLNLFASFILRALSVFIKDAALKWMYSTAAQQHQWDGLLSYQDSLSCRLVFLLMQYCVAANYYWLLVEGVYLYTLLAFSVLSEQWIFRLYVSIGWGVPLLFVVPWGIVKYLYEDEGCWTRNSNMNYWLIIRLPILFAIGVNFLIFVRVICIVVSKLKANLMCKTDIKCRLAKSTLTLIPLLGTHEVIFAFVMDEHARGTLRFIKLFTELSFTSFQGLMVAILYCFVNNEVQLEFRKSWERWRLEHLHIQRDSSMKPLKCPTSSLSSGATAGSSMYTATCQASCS
Sequence of Albumin (P02768 whole entry): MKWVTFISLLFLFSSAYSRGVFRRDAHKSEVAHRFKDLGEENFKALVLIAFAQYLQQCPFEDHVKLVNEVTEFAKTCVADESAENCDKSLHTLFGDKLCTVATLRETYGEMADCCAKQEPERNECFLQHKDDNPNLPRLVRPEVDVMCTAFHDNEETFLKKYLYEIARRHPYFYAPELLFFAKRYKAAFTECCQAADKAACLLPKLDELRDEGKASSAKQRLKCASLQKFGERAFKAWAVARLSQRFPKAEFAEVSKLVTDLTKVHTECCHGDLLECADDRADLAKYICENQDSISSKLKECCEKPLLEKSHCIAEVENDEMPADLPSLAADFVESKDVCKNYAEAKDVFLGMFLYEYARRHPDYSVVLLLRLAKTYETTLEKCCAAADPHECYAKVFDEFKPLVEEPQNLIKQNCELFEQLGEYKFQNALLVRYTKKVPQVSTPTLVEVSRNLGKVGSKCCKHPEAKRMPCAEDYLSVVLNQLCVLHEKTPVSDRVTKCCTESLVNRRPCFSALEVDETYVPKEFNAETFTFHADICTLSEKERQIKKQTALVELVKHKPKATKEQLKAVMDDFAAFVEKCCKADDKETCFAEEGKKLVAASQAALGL

The term Kd denotes the constant that tells how readily two partners part at equilibrium. With `CCOc1ccc(Nc2ccc(/C(=C3C=C/C(=[N+](/CC)Cc4cccc(S(=O)(=O)[O-])c4)C=C/3C)c3ccc(N(CC)Cc4cccc(S(=O)(=O)O)c4)cc3C)cc2)cc1` [BRILLIANT BLUE G FREE ACID], at Albumin, the Kd came out at 320000 pM.
As a reminder, the half-life is the time in which the quantity being followed falls by half. For H-HGEGTFTSDVSSYLEGQAAREFIAWLVRGRG-NH2, the Ratio EC50 in series [1] turned out to be 1.34. Further, the EC50 in series [2] stood at 62.8 pM; in series [3], 16.1 pM; in series [5], 84.2 pM. Further, the half-life in [4] turned out to be 50 min. For the same compound, the remaining at 96 h in series [6] came out at 0%.
`CC[C@H](C)[C@H](NC(=O)[C@H](Cc1ccccc1)NC(=O)[C@H](CCC(=O)O)NC(=O)[C@H](CCCCNC(=O)COCCOCCNC(=O)COCCOCCNC(=O)CC[C@H](NC(=O)CCCCCCCCCCCCCCCCC(=O)O)C(=O)O)NC(=O)[C@H](C)NC(=O)[C@H](C)NC(=O)[C@H](CCC(N)=O)NC(=O)CNC(=O)[C@H](CCC(=O)O)NC(=O)[C@H](CC(C)C)NC(=O)[C@H](Cc1ccc(O)cc1)NC(=O)[C@H](CO)NC(=O)[C@H](CO)NC(=O)[C@@H](NC(=O)[C@H](CC(=O)O)NC(=O)[C@H](CO)NC(=O)[C@@H](NC(=O)[C@H](Cc1ccccc1)NC(=O)[C@@H](NC(=O)CNC(=O)[C@H](CCC(=O)O)NC(=O)C(C)(C)NC(=O)[C@@H](N)Cc1cnc[nH]1)[C@@H](C)O)[C@@H](C)O)C(C)C)C(=O)N[C@@H](C)C(=O)N[C@@H](Cc1c[nH]c2ccccc12)C(=O)N[C@@H](CC(C)C)C(=O)N[C@H](C(=O)N[C@@H](CCCNC(=N)N)C(=O)NCC(=O)N[C@@H](CCCNC(=N)N)C(=O)NCC(=O)O)C(C)C`: the Vd came out at 0.083 L/kg in series [7] and 0.163 L/kg in series [12]. The Activity with Mus musculus [8] was under 10 mM. For the same compound, the EC50 in the series on Mus musculus [9] was 2 nmol/kg. For the same compound, the outcome with Mus musculus [10] and in the series on Mus musculus [11] was Active.
As to `CCOc1ccc(Nc2ccc(/C(=C3C=C/C(=[N+](\CC)Cc4cccc(S(=O)(=O)[O-])c4)C=C/3C)c3ccc(N(CC)Cc4cccc(S(=O)(=O)NCCCCCC(=O)N[C@@H](CCC(=O)NCCCC[C@H](NC(=O)[C@H](C)NC(=O)[C@H](C)NC(=O)[C@H](CCC(N)=O)NC(=O)CNC(=O)[C@H](CCC(=O)O)NC(=O)[C@H](CC(C)C)NC(=O)[C@H](Cc5ccc(O)cc5)NC(=O)[C@H](CO)NC(=O)[C@H](CO)NC(=O)[C@@H](NC(=O)[C@H](CC(=O)O)NC(=O)[C@H](CO)NC(=O)[C@@H](NC(=O)[C@H](Cc5ccccc5)NC(=O)[C@@H](NC(=O)CNC(=O)[C@H](CCC(=O)O)NC(=O)C(C)(C)NC(=O)[C@@H](N)Cc5c[nH]cn5)[C@@H](C)O)[C@@H](C)O)C(C)C)C(=O)N[C@@H](CCC(=O)O)C(=O)N[C@@H](Cc5ccccc5)C(=O)N[C@H](C(=O)N[C@@H](C)C(=O)N[C@@H](Cc5c[nH]c6ccccc56)C(=O)N[C@@H](CC(C)C)C(=O)N[C@H](C(=O)N[C@@H](CCCNC(=N)N)C(=O)NCC(=O)N[C@@H](CCCNC(=N)N)C(=O)NCC(=O)O)C(C)C)[C@@H](C)CC)C(=O)O)c4)cc3C)cc2)cc1`, the EC50 was 1.17 pM in [2], 2.92 pM in [3] and 9.1 pM in series [5].
Turning to `CCOc1ccc(Nc2ccc(/C(=C3C=C/C(=[N+](\CC)Cc4cccc(S(=O)(=O)[O-])c4)C=C/3C)c3ccc(N(CC)Cc4cccc(S(=O)(=O)NCCCCCC(=O)NCCOCCOCC(=O)NCCOCCOCC(=O)NCCCC[C@H](NC(=O)[C@H](C)NC(=O)[C@H](C)NC(=O)[C@H](CCC(N)=O)NC(=O)CNC(=O)[C@H](CCC(=O)O)NC(=O)[C@H](CC(C)C)NC(=O)[C@H](Cc5ccc(O)cc5)NC(=O)[C@H](CO)NC(=O)[C@H](CO)NC(=O)[C@@H](NC(=O)[C@H](CC(=O)O)NC(=O)[C@H](CO)NC(=O)[C@@H](NC(=O)[C@H](Cc5ccccc5)NC(=O)[C@@H](NC(=O)CNC(=O)[C@H](CCC(=O)O)NC(=O)C(C)(C)NC(=O)[C@@H](N)Cc5c[nH]cn5)[C@@H](C)O)[C@@H](C)O)C(C)C)C(=O)N[C@@H](CCC(=O)O)C(=O)N[C@@H](Cc5ccccc5)C(=O)N[C@H](C(=O)N[C@@H](C)C(=O)N[C@@H](Cc5c[nH]c6ccccc56)C(=O)N[C@@H](CC(C)C)C(=O)N[C@H](C(=O)N[C@@H](CCCNC(=N)N)C(=O)NCC(=O)N[C@@H](CCCNC(=N)N)C(=O)NCC(=O)O)C(C)C)[C@@H](C)CC)c4)cc3C)cc2)cc1`, the EC50 was 0.79 pM in series [2], 2.93 pM in [3] and 3.94 pM in [5].
The like results for `CCOc1ccc(Nc2ccc(/C(=C3C=C/C(=[N+](\CC)Cc4cccc(S(=O)(=O)[O-])c4)C=C/3C)c3ccc(N(CC)Cc4cccc(S(=O)(=O)NCCCCCC(=O)NCCOCCOCCOCCOCCOCCOCCOCCOCCC(=O)NCCCC[C@H](NC(=O)[C@H](C)NC(=O)[C@H](C)NC(=O)[C@H](CCC(N)=O)NC(=O)CNC(=O)[C@H](CCC(=O)O)NC(=O)[C@H](CC(C)C)NC(=O)[C@H](Cc5ccc(O)cc5)NC(=O)[C@H](CO)NC(=O)[C@H](CO)NC(=O)[C@@H](NC(=O)[C@H](CC(=O)O)NC(=O)[C@H](CO)NC(=O)[C@@H](NC(=O)[C@H](Cc5ccccc5)NC(=O)[C@@H](NC(=O)CNC(=O)[C@H](CCC(=O)O)NC(=O)C(C)(C)NC(=O)[C@@H](N)Cc5c[nH]cn5)[C@@H](C)O)[C@@H](C)O)C(C)C)C(=O)N[C@@H](CCC(=O)O)C(=O)N[C@@H](Cc5ccccc5)C(=O)N[C@H](C(=O)N[C@@H](C)C(=O)N[C@@H](Cc5c[nH]c6ccccc56)C(=O)N[C@@H](CC(C)C)C(=O)N[C@H](C(=O)N[C@@H](CCCNC(=N)N)C(=O)NCC(=O)N[C@@H](CCCNC(=N)N)C(=O)NCC(=O)O)C(C)C)[C@@H](C)CC)c4)cc3C)cc2)cc1` were, in that order, 0.16 pM, 0.93 pM and 2.44 pM.
With `CCOc1ccc(Nc2ccc(/C(=C3C=C/C(=[N+](\CC)Cc4ccc(S(=O)(=O)[O-])cc4)C=C/3C)c3ccc(N(CC)Cc4cccc(S(=O)(=O)NCCCCCC(=O)N[C@H](C(=O)O)C(=O)NCCCC[C@H](NC(=O)[C@H](C)NC(=O)[C@H](C)NC(=O)[C@H](CCC(N)=O)NC(=O)CNC(=O)[C@H](CCC(=O)O)NC(=O)[C@H](CC(C)C)NC(=O)[C@H](Cc5ccc(O)cc5)NC(=O)[C@H](CO)NC(=O)[C@H](CO)NC(=O)[C@@H](NC(=O)[C@H](CC(=O)O)NC(=O)[C@H](CO)NC(=O)[C@@H](NC(=O)[C@H](Cc5ccccc5)NC(=O)[C@@H](NC(=O)CNC(=O)[C@H](CCC(=O)O)NC(=O)C(C)(C)NC(=O)[C@@H](N)Cc5c[nH]cn5)[C@@H](C)O)[C@@H](C)O)C(C)C)C(=O)N[C@@H](CCC(=O)O)C(=O)N[C@@H](Cc5ccccc5)C(=O)N[C@H](C(=O)N[C@@H](C)C(=O)N[C@@H](Cc5c[nH]c6ccccc56)C(=O)N[C@@H](CC(C)C)C(=O)N[C@H](C(=O)N[C@@H](CCCNC(=N)N)C(=O)NCC(=O)N[C@@H](CCCNC(=N)N)C(=O)NCC(=O)O)C(C)C)[C@@H](C)CC)c4)cc3C)cc2)cc1`, the Ratio EC50 in series [1] was determined as 7.91. Besides, the EC50 is 1.12 pM in series [2], 4.08 pM in series [3] and 8.86 pM in series [5].
`CCOc1ccc(Nc2ccc(/C(=C3C=C/C(=[N+](\CC)Cc4cccc(S(=O)(=O)[O-])c4)C=C\3C)c3ccc(N(CC)Cc4cccc(S(=O)(=O)NCCCCCC(=O)NCCOCCOCCOCCOCCOCCOCCOCCOCCC(=O)NCCCC[C@H](NC(=O)[C@@H](NC(=O)[C@H](CC(C)C)NC(=O)[C@H](Cc5c[nH]c6ccccc56)NC(=O)[C@H](C)NC(=O)[C@@H](NC(=O)[C@H](Cc5ccccc5)NC(=O)[C@H](CCC(=O)O)NC(=O)[C@H](CCCCN)NC(=O)[C@H](C)NC(=O)[C@H](C)NC(=O)[C@H](CCC(N)=O)NC(=O)CNC(=O)[C@H](CCC(=O)O)NC(=O)[C@H](CC(C)C)NC(=O)[C@H](Cc5ccc(O)cc5)NC(=O)[C@H](CO)NC(=O)[C@H](CO)NC(=O)[C@@H](NC(=O)[C@H](CC(=O)O)NC(=O)[C@H](CO)NC(=O)[C@@H](NC(=O)[C@H](Cc5ccccc5)NC(=O)[C@@H](NC(=O)CNC(=O)[C@H](CCC(=O)O)NC(=O)[C@H](CO)NC(=O)[C@@H](N)Cc5c[nH]cn5)[C@@H](C)O)[C@@H](C)O)C(C)C)[C@@H](C)CC)C(C)C)C(=O)NCC(=O)N[C@@H](CCCNC(=N)N)C(N)=O)c4)cc3C)cc2)cc1`: the Ratio EC50 in series [1] stood at 2.55. The values for the EC50 in series [2], in series [3] and in series [5] were 0.33 pM, 3.96 pM and 0.84 pM, respectively.
